Data: patent US12012411B2, “Viral replication inhibitors” (Katholieke Universiteit Leuven, priority 2011, dated 2024)

How the values were obtained:
in vitro = details: African green monkey; for CC50 at 4 days: uninfected quiescent Vero-B cells
DENV-2 NGC = assay: Antiviral activity against DENV-2 NGC in Vero-B cells (viral RNA load by RT-qPCR); assay type: cell-based, Dengue virus; details: Dengue virus, DENV2, Vero B, DENV-2 in Vero-B cells; inhibition of viral RNA replication by 50% (Table 3)

Row | SMILES | CC50 at 4 days (in vitro) | EC50 (DENV-2 NGC) | CC50 (in vitro)
1 | CC(=O)Nc1cccc(NC(C(=O)c2c[nH]c3ccccc23)c2ccccc2)c1 (stereo not shown) [CPD-174] | 61 µM | 10.1 µM | 
2 | COc1cccc(NC(C(=O)c2nn(C)c3ccccc23)c2cnc(OC)cn2)c1 (stereo not shown) [CPD-272] | > 124 µM | 0.47 µM | 
3 | COc1cccc(NC(C(=O)c2c[nH]c3cc(C#N)ccc23)c2ccccc2)c1 (stereo not shown) [CPD-094] | 11 µM | 0.14 µM | 
4 | COc1cc(NC(C(=O)c2cn(C)c3ccccc23)c2ccccc2)ccn1 (stereo not shown) [CPD-100] | 42 µM | 12 µM | 
5 | COC(=O)c1ccc2c(C(=O)C(Nc3cccc(OC)c3)c3ccccc3)c[nH]c2c1 (stereo not shown) [CPD-085] | 16 µM | 0.07 µM | 
6 | O=C(c1c[nH]c2ccccc12)C(Nc1cccc(Cl)c1)c1ccccc1 (stereo not shown) [CPD-006] | 6 µM | 0.75 µM | 
7 | COc1cc(NC(C(=O)c2c[nH]c3ccccc23)c2ccc(F)cc2)ccn1 (stereo not shown) [CPD-090] | 13 µM | 2.9 µM | 
8 | CCOc1cncc(NC(C(=O)c2c[nH]c3ccccc23)c2ccccc2)c1 (stereo not shown) [CPD-246] | 16 µM | 0.32 µM | 
9 | COc1ccc(C(Nc2cncc(OC)n2)C(=O)c2c[nH]c3ccccc23)cn1 (stereo not shown) [CPD-284] | 74 µM | 0.62 µM | 
10 | COc1cccc(NC(C(=O)c2c[nH]c3ccc(CN(C)C)cc23)c2ccccc2)c1 (stereo not shown) [CPD-228] | 13 µM | 1.62 µM | 
11 | COc1cccc(NC(C(=O)c2nn(C)c3ccccc23)c2ccc(OC)nc2)c1 (stereo not shown) [CPD-264] | > 124 µM | 0.51 µM | 
12 | CC(C)Oc1cncc(NC(C(=O)c2c[nH]c3ccccc23)c2ccccc2)c1 (stereo not shown) [CPD-247] | 15 µM | 0.42 µM | 
13 | COc1cccc(NC(C(=O)c2c[nH]c3cccnc23)c2ccccc2)c1 (stereo not shown) [CPD-195] | 65 µM | 12.7 µM | 
14 | COc1cccc(NC(C(=O)c2c[nH]c3ccccc23)c2cnccn2)c1 (stereo not shown) [CPD-274] | 100 µM | 0.39 µM | 
15 | O=C(c1c[nH]c2ccccc12)C(Nc1cccc(-n2cncn2)c1)c1ccccc1 (stereo not shown) [CPD-058] | 64 µM | 2.85 µM | 
16 | COc1cccc(NC(C(=O)c2c[nH]c3ccccc23)c2cn3c(n2)COCC3)c1 (stereo not shown) [CPD-080] | > 124 µM | 0.99 µM | 
17 | COc1cncc(NC(C(=O)c2c[nH]c3cc(F)ccc23)c2ccccc2)n1 (stereo not shown) [CPD-287] | > 132 µM | 0.44 µM | 
18 | COc1cc(NC(C(=O)c2c[nH]c3ccccc23)c2ccc(C#N)cc2)ccn1 (stereo not shown) [CPD-061] | 59 µM | 1.71 µM | 
19 | NS(=O)(=O)c1cccc(NC(C(=O)c2c[nH]c3ccccc23)c2ccccc2)c1 (stereo not shown) [CPD-187] | 58 µM | 3.18 µM | 
20 | O=C(O)c1cccc(NC(C(=O)c2c[nH]c3ccccc23)c2ccccc2)c1 (stereo not shown) [CPD-071] | 135 µM | 60.9 µM | 

Row | SMILES | CC50 at 4 days (in vitro) | EC50 (DENV-2 NGC) | CC50 (in vitro)
21 | COc1cc(OC)nc(NC(C(=O)c2c[nH]c3ccccc23)c2ccccc2)n1 (stereo not shown) [CPD-347] | 6 µM | 0.98 µM | 
22 | CNc1ncc(NC(C(=O)c2c[nH]c3ccccc23)c2ccccc2)cc1OC (stereo not shown) [CPD-261] | 15 µM | 0.39 µM | 
23 | COc1cc(NC(C(=O)c2c[nH]c3ccccc23)c2ccccc2)cc(C(F)(F)F)c1 (stereo not shown) [CPD-014] | 8 µM | 0.02 µM | 
24 | O=C(c1c[nH]c2ccccc12)C(Nc1cccc(O)c1)c1ccccc1 (stereo not shown) [CPD-366] | 78 µM | 0.26 µM | 
25 | COc1cc(NC(C(=O)c2csc3ccccc23)c2cn3ccccc3n2)ccn1 (stereo not shown) [CPD-199] | > 120 µM | 24.9 µM | 
26 | COc1cc(NC(C(=O)c2c[nH]c3ccccc23)c2ccccc2)ncn1 (stereo not shown) [CPD-072] | 68 µM | 6.84 µM | 
27 | COc1cccc(NC(C(=O)c2c[nH]c3ccccc23)c2cccs2)c1 (stereo not shown) [CPD-024] | 14 µM | 0.5 µM | 
28 | COc1cccc(NC(C(=O)c2c[nH]c3ccccc23)c2ncc[nH]2)c1 (stereo not shown) [CPD-028] | > 144 µM | 135 µM | 
29 | COc1cccc(NC(C(=O)c2cn(CCN)c3ccccc23)c2ccccc2)c1 (stereo not shown) [CPD-105] |  | 1.23 µM | 14 µM
30 | COc1cc(NC(C(=O)c2c[nH]c3cc(C#N)ccc23)c2ccccc2)ccn1 (stereo not shown) [CPD-093] | 87 µM | 16.8 µM | 
31 | COc1cccc(NC(C(=O)c2c[nH]c3ccccc23)c2ccc(N(C)C)nc2)c1 (stereo not shown) [CPD-239] | > 125 µM | 22.7 µM | 
32 | COc1cccc(NC(C(=O)c2cnc3ccccn23)c2ccccc2)c1 (stereo not shown) [CPD-196] | > 139 µM | 62.6 µM | 
33 | COc1cccc(N2C(=O)CN(C)n3cc(c4ccccc43)C(=O)C2c2ccccc2)c1 (stereo not shown) [CPD-115] | 49 µM | 10.6 µM | 
34 | COc1cncc(NC(C(=O)c2c[nH]c3ccccc23)c2cc3ccccn3n2)n1 (stereo not shown) [CPD-290] | > 125 µM | 0.88 µM | 
35 | COc1cccc(NC(C(=O)c2c[nH]c3ccccc23)c2ccc3c(c2)n(C)c(=O)n3C)c1 (stereo not shown) [CPD-060] | > 113 µM | 10.3 µM | 
36 | CNC(=O)c1cccc(NC(C(=O)c2c[nH]c3ccccc23)c2ccccc2)c1 (stereo not shown) [CPD-170] | 26 µM | 0.44 µM | 
37 | COc1cccc(NC(C(=O)c2c[nH]c3ccccc23)c2cccc(-c3cncnc3)c2)c1 (stereo not shown) [CPD-054] | > 115 µM | 2.09 µM | 
38 | COc1cccc(NC(C(=O)c2nn(C)c3c2CN(C)CC3)c2ccccc2)c1 (stereo not shown) [CPD-223] | > 128 µM | 58 µM | 
39 | COc1cccc(NC(C(=O)c2c[nH]c3ccccc23)c2ccc(OC(C)C)nc2)c1 (stereo not shown) [CPD-268] | 15 µM | 0.46 µM | 
40 | COc1cccc(NC(C(=O)c2c[nH]c3ccccc23)c2cn3cc(F)ccc3n2)c1 (stereo not shown) [CPD-110] | 73 µM | 0.58 µM | 

Row | SMILES | CC50 at 4 days (in vitro) | EC50 (DENV-2 NGC) | CC50 (in vitro)
41 | COc1cc(NC(C(=O)c2c[nH]c3ccccc23)c2cn3c(F)cccc3n2)ccn1 (stereo not shown) [CPD-081] | 50 µM | 10.8 µM | 
42 | COc1cccc(NC(C(=O)c2c[nH]c3ccccc23)c2ccc(-c3cncnc3)cc2)c1 (stereo not shown) [CPD-048] | > 115 µM | 2.09 µM | 
43 | COc1cccc(NC(C(=O)c2c[nH]c3ccccc23)c2cc(C)n(C)n2)c1 (stereo not shown) [CPD-267] | 79 µM | 1.3 µM | 
44 | COc1cccc(NC(C(=O)c2c[nH]c3cc(O)ccc23)c2ccccc2)c1 (stereo not shown) [CPD-134] | 49 µM | 0.46 µM | 
45 | CCOC(=O)c1cccc(NC(C(=O)c2c[nH]c3ccccc23)c2ccccc2)c1 (stereo not shown) [CPD-068] | 12 µM | 1.32 µM | 
46 | COc1cccc(N(C)C(C(=O)c2c[nH]c3ccccc23)c2ccccc2)c1 (stereo not shown) [CPD-018] | 19 µM | 0.37 µM | 
47 | COc1cc(NC(C(=O)c2cn(C)c3c(CCO)cccc23)c2ccccc2)cc(OC)c1 (stereo not shown) [CPD-358] | 63 µM | 0.18 µM | 
48 | COc1cccc(NC(C(=O)c2noc3ccccc23)c2ccccc2)c1 (stereo not shown) [CPD-330] | > 139 µM | 4.63 µM | 
49 | COc1cccc(NC(C(=O)c2c[nH]c3cccc(OC)c23)c2ccccc2)c1 (stereo not shown) [CPD-231] | 18 µM | 1.22 µM | 
50 | COc1cncc(NC(C(=O)c2c[nH]c3c(CCO)cccc23)c2ccccc2)c1 (stereo not shown) [CPD-364] | 62 µM | 1.12 µM | 
51 | COc1cccc(NC(C(=O)c2cn(S(=O)(=O)C3CCNCC3)c3ccccc23)c2ccccc2)c1 (stereo not shown) [CPD-217] | 11 µM | 0.25 µM | 
52 | COc1cccc(NC(C(=O)c2nn(C)c3cc(C#N)ccc23)c2ccccc2)c1 (stereo not shown) [CPD-286] | > 126 µM | 1.05 µM | 
53 | O=C(c1c[nH]c2ccccc12)C(Nc1cncc(OC(F)F)c1)c1ccccc1 (stereo not shown) [CPD-269] | 13 µM | 0.48 µM | 
54 | COc1cc(NC(C(=O)c2c[nH]c3cc(F)ccc23)c2ccccc2)ccn1 (stereo not shown) [CPD-075] | 102 µM | 1.52 µM | 
55 | COc1cc(NC(C(=O)c2c[nH]c3ccccc23)c2cccnc2)ccn1 (stereo not shown) [CPD-074] | 77 µM | 0.81 µM | 
56 | COc1cc(NC(C(=O)c2c[nH]c3ccccc23)c2cn3ccccc3n2)ccn1 (stereo not shown) [CPD-064] | 72 µM | 8.75 µM | 
57 | COc1cc(NC(C(=O)c2c[nH]c3ccc(Cl)cc23)c2ccccc2)ccn1 (stereo not shown) [CPD-099] | 12 µM | 1.76 µM | 
58 | COc1cc(NC(C(=O)c2c[nH]c3ccccc23)c2ccccc2)cnc1N(C)C (stereo not shown) [CPD-257] | 17 µM | 0.45 µM | 
59 | NC(=O)c1cccc(NC(C(=O)c2c[nH]c3ccccc23)c2ccccc2)c1 (stereo not shown) [CPD-065] | 90 µM | 12.1 µM | 
